In US8664238B2, “Indenoisoquinolinone derivatives, manufacturing method and medical use thereof” (China Pharmaceutical University, priority 2009, dated 2014):

Experiments:
[1] = test system: Human breast cancer cells MCF-7; assay: Proliferation of MCF-7 breast cancer cells (MTT detection method); type: cell-based; details: MCF-7 cells, 48 h incubation with drug, read-out: IC50, inhibition on the proliferation of MCF-7 breast cancer cells
Experimental: The method described in Journal of Medicinal Chemistry. 1997. 40. 1407-1416 has been used and slightly modified. Human breast cancer cells MCF-7, purchased from Nanjing Keygen Biotechnology Inc. MCF-7 cells were incubated in RPMI1640 medium (containing 10% calf serum, 100 U/ml of penicillin and 100 μg/ml of streptomycin) in a 37° C. incubator with 5% CO2. The medium was replaced once about two days and cells were subcultured once every 3-4 days. In the subculturing, the old medium was discarded and the culture was washed twice with D-hanks (for washing off the phenol red in the medium to eliminate the influence of phenol red on the digestion effect of trypsin). Then, a small amount of 0.25% trypsin (25 mg trypsin, 100 ml D-hanks) was added and the contents were paved in the bottle bottom smoothly. […] Trypsin was discarded and the cells were washed with D-hanks, then fresh medium was added and mixed by blowing. The cultures were put into new culture flasks and cultured continuously. After cell count, a small volume of cell suspension was taken and mixed with 0.4% trypan blue in the same volume by blowing with a straw. A little mixture (15 μl-20 μl) was taken and dropped into the interspace between the counting plate and the coverslip without bubbles. […] Dead cells can be stained by trypan blue, while living cells cannot. The counting plate was moved so as to see the counting squares, then unstained cells in four diagonal grids were counted. The cells counted include those on the right line and the top line but not those on the bottom line and the left line. The number of cells/ml=the number of cells in 25% grid×10^4. […] The control group was that in which the anticancer drug was replaced with the same volume of medium and the blank group is 200 μl medium. After incubating for 48 h, 5 mg/ml MTT was added in 20 μl per well and the cultures were further incubated for 4 h. Then, the liquid was suck out carefully and 150 μl of DMSO was added per well. OD values of all wells were measured in 570 nm and the inhibition rate on the cell proliferation and values of IC50 were calculated.

[2] = test system: H460 human lung cancer cells; assay: Proliferation experiment of H460 human lung cancer cells; type: cell-based
Experimental: Meanwhile, the proliferation experiment of H460 human lung cancer cells was also conducted.

IC50 [1] | IC50 [2] | SMILES
11.3 µM |  | O=C1c2ccccc2-c2c1c1ccccc1c(=O)n2-c1ccc(OCCN2CCCC2)cc1 [Ii, 6-(4-(2-pyrrolidinylethoxy)phenyl)-5H-indeno[1,2-c]isoquinoline-5,11(6H)-diketone]
24.7 µM |  | O=C1c2ccccc2-c2c1c1ccccc1c(=O)n2-c1ccc(OCCCN2CCCC2)cc1 [Ij, 6-(4-(3-pyrrolidinylpropoxy)phenyl)-5H-indeno[1,2-c]isoquinoline-5,11(6H)-diketone]
79.9 µM |  | CC(C)N(CCOc1ccc(-n2c3c(c4ccccc4c2=O)C(=O)c2ccccc2-3)cc1)C(C)C [Ik, 6-(4-(2-diisopropylaminoethoxy)phenyl)-5H-indeno[1,2-c]isoquinoline-5,11(6H)-diketone]

More lines, now with the values behind:

SMILES | IC50 [1] | IC50 [2]
O=C1c2ccccc2-c2c1c1ccccc1c(=O)n2-c1ccc(OCCN2CCCCC2)cc1 [Ia, 6-(4-(2-piperidinylethoxy)phenyl)-5H-indeno[1,2-c]isoquinoline-5,11(6H)-diketone] | 9.55 µM | 
O=C1c2ccccc2-c2c1c1ccccc1c(=O)n2-c1ccc(OCCCN2CCCCC2)cc1 [Ib, 6-(4-(3-piperidinylpropoxy)phenyl)-5H-indeno[1,2-c]isoquinoline-5,11(6H)-diketone] | 10.9 µM | 
CN(C)CCOc1ccc(-n2c3c(c4ccccc4c2=O)C(=O)c2ccccc2-3)cc1 [Ic, 6-(4-(2-dimethylaminoethoxy)phenyl)-5H-indeno[1,2-c]isoquinoline-5,11(6H)-diketone] | 2.13 µM | 
CN(C)CCCOc1ccc(-n2c3c(c4ccccc4c2=O)C(=O)c2ccccc2-3)cc1 [Id, 6-(4-(3-dimethylaminopropoxy)phenyl)-5H-indeno[1,2-c]isoquinoline-5,11(6H)-diketone] | 27.9 µM | 
CCN(CC)CCOc1ccc(-n2c3c(c4ccccc4c2=O)C(=O)c2ccccc2-3)cc1 [Ie, 6-(4-(2-diethylaminoethoxy)phenyl)-5H-indeno[1,2-c]isoquinoline-5,11(6H)-diketone] | 7.8 µM | 
CCN(CC)CCCOc1ccc(-n2c3c(c4ccccc4c2=O)C(=O)c2ccccc2-3)cc1 [If, 6-(4-(3-diethylaminopropoxy)phenyl)-5H-indeno[1,2-c]isoquinoline-5,11(6H)-diketone] | 8.52 µM | 0.63 µM
CN1CCN(CCOc2ccc(-n3c4c(c5ccccc5c3=O)C(=O)c3ccccc3-4)cc2)CC1 [Ig, 6-(4-(2-(4-methylpiperazinyl)ethoxy)phenyl)-5H-indeno[1,2-c]isoquinoline-5,11(6H)-diketone] | 5.82 µM | 
CN1CCN(CCCOc2ccc(-n3c4c(c5ccccc5c3=O)C(=O)c3ccccc3-4)cc2)CC1 [Ih, 6-(4-(3-(4-methylpiperazinyl)propoxy)phenyl)-5H-indeno[1,2-c]isoquinoline-5,11(6H)-diketone] | 5.89 µM | 
